Data reported in ChEMBL document CHEMBL1667742, “Angiotensin II receptor type 1 (AT1) selective nonpeptidic antagonists--a perspective” (Bioorg Med Chem, 2010).
Residue numbers refer to the chain shown, from its start. Values belong to the molecule of their own block, whether it stands above or below them.

Assays:
[1] = molecular target: T1, Type-1 angiotensin II receptor (Oryctolagus cuniculus, UniProt P34976); assay: (§1) Antagonist activity at angiotensin AT1 receptor in rabbit aorta; format: functional, tissue-based; settings: read-out: pA2 (converted)
T1 sequence (P34976 whole entry): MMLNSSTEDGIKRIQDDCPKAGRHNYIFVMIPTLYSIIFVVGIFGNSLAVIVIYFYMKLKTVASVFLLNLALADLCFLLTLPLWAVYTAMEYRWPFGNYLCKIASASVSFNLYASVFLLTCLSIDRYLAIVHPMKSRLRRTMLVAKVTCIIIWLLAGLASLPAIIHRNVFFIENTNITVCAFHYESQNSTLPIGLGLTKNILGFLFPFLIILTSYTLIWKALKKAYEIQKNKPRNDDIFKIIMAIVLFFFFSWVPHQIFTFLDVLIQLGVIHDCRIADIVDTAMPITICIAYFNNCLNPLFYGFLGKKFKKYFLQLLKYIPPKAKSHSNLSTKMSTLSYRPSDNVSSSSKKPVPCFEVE

[2] = Antagonist activity at angiotensin AT1 receptor in rat adrenal cortical membranes; format: functional, cell membranes
[3] = Displacement of radiolabeled angiotensin2 from angiotensin AT1 receptor in rat adrenal cortex membranes; format: cell membranes, Membrane
[4] = molecular target: T2, Type-2 angiotensin II receptor (Homo sapiens, UniProt P50052); assay: Binding affinity to angiotensin AT2 receptor
T2 sequence (P50052 whole entry): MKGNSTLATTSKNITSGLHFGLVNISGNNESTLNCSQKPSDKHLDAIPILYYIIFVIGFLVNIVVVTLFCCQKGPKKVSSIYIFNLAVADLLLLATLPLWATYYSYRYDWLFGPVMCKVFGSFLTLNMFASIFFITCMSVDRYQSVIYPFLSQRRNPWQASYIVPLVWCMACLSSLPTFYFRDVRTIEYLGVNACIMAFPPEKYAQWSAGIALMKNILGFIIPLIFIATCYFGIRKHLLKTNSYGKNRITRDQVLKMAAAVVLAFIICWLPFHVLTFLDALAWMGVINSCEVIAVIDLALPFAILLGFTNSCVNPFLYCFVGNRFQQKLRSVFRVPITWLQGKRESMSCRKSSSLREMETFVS

[5] = molecular target: T3, Type-1 angiotensin II receptor (Homo sapiens, UniProt P30556); assay: Antagonist activity at angiotensin AT1 receptor; format: functional; settings: for Kb: read-out: pA2 (converted)
T3 sequence (P30556 whole entry): T1 sequence (P34976 whole entry) with M2I, A49V, V254I, V270I, H272R, K311R, S349T, V353A

[6] = molecular target: T3, Type-1 angiotensin II receptor; assay: Binding affinity to angiotensin AT1 receptor
[7] = Selectivity ratio of IC50 for angiotensin AT1 receptor to IC50 for angiotensin AT2 receptor
[8] = Oral bioavailability in rat; format: ADME, organism-based; settings: in vivo
[9] = molecular target: T1, Type-1 angiotensin II receptor; assay: Antagonist activity at angiotensin AT1 receptor in rabbit aortic strip assessed as inhibition of angiotensin 2-induced contractile response; format: functional
[10] = tested on: Rattus norvegicus; assay: Antihypertensive activity in po dosed conscious rat; format: functional; settings: read-out: ID50 (the source's name)
[11] = Antagonist activity at angiotensin AT1 receptor in rat aorta; format: functional, tissue-based
[12] = tested on: Rattus norvegicus; assay: Ratio of compound ED50 to losartan ED50 for po dosed renal hypertensive rat model; format: functional
[13] = Antagonist activity at angiotensin AT1 receptor in rat liver membranes; format: functional, cell membranes, Membrane
[14] = molecular target: T1, Type-1 angiotensin II receptor; assay: Binding affinity to angiotensin AT1 receptor in rabbit aortic rings
[15] = molecular target: T4, Type-1 angiotensin II receptor (Oryctolagus cuniculus) (UniProt P34976); assay: as §1; format: functional, tissue-based
T4 sequence (whole entry): T1 sequence (P34976 whole entry)

[16] = Binding affinity to angiotensin AT1 receptor in rat liver membranes; format: cell membranes, Membrane
[17] = Binding affinity to angiotensin AT1 receptor in rat adrenal cortical membranes; format: cell membranes

SMILES: CCCCCCC(C(=O)O)n1cnc(NC(=O)c2cccc(O)c2C(=O)O)c1 (stereo not drawn)
- Kb [1]: 100 nM

SMILES: CCCCc1nc2cccnc2n1-c1ccc(CCO/C(O)=C2\C(C(C)C)=NC(C)=C(C(=O)Nc3cccnc3)C2c2ccccc2Cl)cc1 (stereo not drawn)
- IC50 [2]: 0.6 nM

SMILES: CCCc1nc(CC)c(C=O)n1Cc1ccc(-c2ccccc2-c2nn[nH]n2)cc1
- IC50 [3]: 2.1 nM

SMILES: CCCCc1nc2ccn(CC(=O)N3CCCCC3)c(=O)c2n1Cc1ccc(-c2ccccc2S(=O)(=O)NC(=O)OCc2ccccc2)cc1F
- IC50 [6]: 4.7 nM
- IC50 [4]: 3.5 nM
- Ratio IC50 [7]: 0.74

SMILES: CCCCC(=O)N(Cc1ccc(-c2ccccc2-c2nnn[nH]2)cc1)[C@H](C(=O)O)C(C)C
- IC50 [11]: 2.7 nM

SMILES: CCc1nn(Cc2ccc(-c3ccccc3-c3nn[nH]n3)cc2)/c(=N/C(=O)C2=C(C(=O)[O-])CCC2)s1.[K+]
- IC50 [5]: 0.4 nM
- Ratio ED50 [12]: 10

SMILES: CCc1nc2c(C)cc(C)nc2n1Cc1ccc(-c2ccccc2S(=O)(=O)NC(=O)c2ccccc2)cc1
- Kb [1]: 0.0501 nM

SMILES: CCCCc1nnc(SCc2ccccc2C(=O)O)n1Cc1ccc(-c2ccccc2-c2nn[nH]n2)cc1
- IC50 [6]: 1.4 nM

SMILES: CCCc1nc(C(F)(F)C(F)(F)F)c(C(=O)O)n1Cc1ccc(-c2ccccc2-c2nn[nH]n2)cc1
- IC50 [3]: 3.1 nM

SMILES: CCCCC1=N[C@](C)(C2CCCCC2)C(=O)N1Cc1ccc(-c2ccccc2-c2nnn[nH]2)cc1
- IC50 [14]: 0.77 nM

SMILES: CCc1nc2c(n1Cc1ccc(-c3ccccc3-c3nn[nH]n3)cc1)/C(=C/C(=O)O)CCCC2
- pD2 [15]: 9.91
- IC50 [16]: 5.5 nM

SMILES: CCCCc1nc2ccc([C@]3(C)C[C@H]4CCCN4O3)cc2c(=O)n1Cc1ccc(-c2ccccc2-c2nn[nH]n2)cc1
- Kb [5]: 0.0126 nM

SMILES: CCCc1nc(CC)c(C(=O)O)n1Cc1ccc(-c2ccccc2-c2nn[nH]n2)cc1
- IC50 [3]: 6 nM
- Ratio ED50 [12]: 20

SMILES: CCCCc1nc2cccnc2n1Cc1ccc(-n2cccc2-c2nnn[nH]2)cc1
- Kb [1]: 3.55 nM
- IC50 [11]: 0.6 nM

SMILES: CCCCc1cn(CCCC)c(=O)n1Cc1ccc(-c2ccccc2-c2nnn[nH]2)nc1 [SC-52892]
- Kb [5]: 2.09 nM
- IC50 [6]: 6.5 nM

Continued, in another order:

- Ki [4]: 4.5 nM
SMILES: CCCCc1nc2ccccc2[n+]([O-])c1Oc1ccc(-c2ccccc2-c2nn[nH]n2)cc1

- Kb [1]: 9.77 nM
- Kb [5]: 0.0126 nM
- IC50 [6]: 6 nM
SMILES: CCCCc1nc2ccc(C(C)(C)OC)cc2c(=O)n1Cc1ccc(-c2ccccc2-c2nn[nH]n2)cc1 [CL-329167]

- Kb [5]: 3.16 nM
- IC50 [6]: 16 nM
SMILES: CCCCc1nc(Cc2ccc(-c3ccccc3-c3nnn[nH]3)cc2)n(CCCC)n1

- bioavailability [8]: 28%
- IC50 [9]: 200 nM
SMILES: CCOc1nc2cccc(C(=O)OC(C)OC(=O)OC3CCCCC3)c2n1Cc1ccc(-c2ccccc2-c2nnn[nH]2)cc1 (stereo not drawn) [CANDESARTAN CILEXETIL]
- ED50 [10]: 0.06 mg/kg

- Kb [1]: 0.0501 nM
SMILES: CCc1cc(OCc2ccc(-c3ccccc3-c3nnn[nH]3)cc2)c2c(n1)CCCC2

- IC50 [13]: 350 nM
SMILES: Cc1nc(Sc2ccc(-c3ccccc3-c3nn[nH]n3)cc2)c2ccccc2n1

- IC50 [4]: 10 nM
SMILES: CCCCc1nc(Cl)c2n1C(c1ccc(-c3ccccc3-c3nnn[nH]3)cc1)CC(C(=O)O)=C2 (stereo not drawn)

- Ki [17]: 0.9 nM
SMILES: CCCCc1nc(C)n(Cc2sccc2C(=O)OC)c(=O)c1Cc1ccc(-c2ccccc2-c2nnn[nH]2)cc1

- Kb [1]: 5.01 nM
SMILES: CCc1cc(OCc2ccc(-c3ccccc3-c3nnn[nH]3)cc2)c2ccccc2n1

- Ki [6]: 24 nM
SMILES: CCCc1nc(C)n2[nH]c(=O)nc2c1Cc1ccc(-c2ccccc2-c2nnn[nH]2)cc1

- IC50 [13]: 20 nM
SMILES: CCc1cc(Sc2ccc(-c3ccccc3-c3nn[nH]n3)cc2)c2ncccc2n1
